Assay results as given in patent US20080096906A1, “AMINOMETHYL-2-IMIDAZOLES” (priority 2006, published 2008).

These compounds were tested against TAAR1 (Mus musculus, UniProt Q923Y8) (assay: Radioligand binding to TAAR1 on membranes of stably transfected HEK293 cells). Details: not given.
Sequence of TAAR1 (Q923Y8 whole entry): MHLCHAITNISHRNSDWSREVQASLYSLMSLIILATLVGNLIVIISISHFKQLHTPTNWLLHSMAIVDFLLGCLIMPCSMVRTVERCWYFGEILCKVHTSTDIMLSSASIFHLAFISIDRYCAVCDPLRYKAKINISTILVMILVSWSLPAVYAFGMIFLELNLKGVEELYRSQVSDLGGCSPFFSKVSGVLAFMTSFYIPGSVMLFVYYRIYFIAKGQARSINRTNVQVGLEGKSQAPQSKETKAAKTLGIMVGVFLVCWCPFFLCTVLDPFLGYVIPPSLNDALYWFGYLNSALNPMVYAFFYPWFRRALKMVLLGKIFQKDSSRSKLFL

Compound	Ki
CN(Cc1ncc[nH]1)c1cccc(Cl)c1 [Example 2, (3-Chloro-phenyl)-(1H-imidazol-2-ylmethyl)-methyl-amine]	30 nM
CCN(Cc1ncc[nH]1)c1cccc(Oc2ccccc2)c1 [Example 65, Ethyl-(1H-imidazol-2-ylmethyl)-(3-phenoxy-phenyl)-amine]	11.1 nM
CC(C)N(Cc1ncc[nH]1)c1cccc(Oc2cccnc2)c1 [Example 43, (1H-Imidazol-2-ylmethyl)-isopropyl-[3-(pyridin-3-yloxy)-phenyl]-amine]	25 nM
CCN(Cc1ncc[nH]1)c1cccc(OCc2ccccc2)c1 [Example 66, (3-Benzyloxy-phenyl)-ethyl-(1H-imidazol-2-ylmethyl)-amine]	26.3 nM
Cc1cccc(N(Cc2ncc[nH]2)C(C)C)c1 [Example 39, (1H-Imidazol-2-ylmethyl)-isopropyl-m-tolyl-amine]	89 nM
c1ccc(COc2cccc(NCc3ncc[nH]3)c2)cc1 [Example 62, (3-Benzyloxy-phenyl)-(1H-imidazol-2-ylmethyl)-amine]	2.8 nM
CC(C)N(Cc1ncc[nH]1)c1cccc(OCc2ccccc2)c1 [Example 41, (3-Benzyloxy-phenyl)-(1H-imidazol-2-ylmethyl)-isopropyl-amine]	21 nM
COc1cccc(N(C)Cc2ncc[nH]2)c1 [Example 6, (1H-Imidazol-2-ylmethyl)-(3-methoxy-phenyl)-methyl-amine]	73 nM
Clc1ccc(NCc2ncc[nH]2)cc1Cl [Example K8, (3,4-dichloro-phenyl)-(1H-imidazol-2-ylmethyl)-amine, reference compound]	55 nM
COCCN(Cc1ncc[nH]1)c1ccccc1 [Example 21, (1H-Imidazol-2-ylmethyl)-(2-methoxy-ethyl)-phenyl-amine]	82 nM
CCN(Cc1ncc[nH]1)c1cccc(Cl)c1 [Example 30, (3-Chloro-phenyl)-ethyl-(1H-imidazol-2-ylmethyl)-amine]	36 nM
Fc1ccc(NCc2ncc[nH]2)cc1Cl [Example 74, (3-Chloro-4-fluoro-phenyl)-(1H-imidazol-2-ylmethyl)-amine]	83.9 nM
CN(Cc1ncc[nH]1)c1ccc(Cl)cc1 [Example 5, (4-Chloro-phenyl)-(1H-imidazol-2-ylmethyl)-methyl-amine]	81 nM
CC(C)N(Cc1ncc[nH]1)c1cccc(Cc2ccccc2)c1 [Example 45, (3-Benzyl-phenyl)-(1H-imidazol-2-ylmethyl)-isopropyl-amine]	2 nM
CC(C)N(Cc1ncc[nH]1)c1cccc(-c2ccccc2)c1 [Example 46, Biphenyl-3-yl-(1H-imidazol-2-ylmethyl)-isopropyl-amine]	77 nM

Second part, the compound after the results:

Ki	Compound
99.5 nM	Brc1cccc(NCc2ncc[nH]2)c1 [Example 71, (3-Bromo-phenyl)-(1H-imidazol-2-ylmethyl)-amine]
94 nM	CC(C)N(Cc1ncc[nH]1)c1ccc(F)cc1 [Example 10, (4-Fluoro-phenyl)-(1H-imidazol-2-ylmethyl)-isopropyl-amine]
82 nM	CC(C)N(Cc1ncc[nH]1)c1cccc(Oc2ccc(Cl)cc2)c1 [Example 51, [3-(4-Chloro-phenoxy)-phenyl]-(1H-imidazol-2-ylmethyl)-isopropyl-amine]
70.8 nM	Fc1ccc(NCc2ncc[nH]2)cc1F [Example 73, (3,4-Difluoro-phenyl)-(1H-imidazol-2-ylmethyl)-amine]
65 nM	CC(C)N(Cc1ncc[nH]1)c1cc(Cl)cc(Cl)c1 [Example 37]
51 nM	CCN(Cc1ncc[nH]1)c1cccc(F)c1 [Example 12, Ethyl-(3-fluoro-phenyl)-(1H-imidazol-2-ylmethyl)-amine]
33.1 nM	CCN(Cc1ncc[nH]1)c1ccc(Cl)c(Cl)c1 [Example 68, (3,4-Dichloro-phenyl)-ethyl-(1H-imidazol-2-ylmethyl)-amine]
26.1 nM	c1ccc(Oc2cccc(NCc3ncc[nH]3)c2)cc1 [Example 61, (1H-Imidazol-2-ylmethyl)-(3-phenoxy-phenyl)-amine]
25.9 nM	COc1cc(NCc2ncc[nH]2)ccc1Cl [Example 64, (4-Chloro-3-methoxy-phenyl)-(1H-imidazol-2-ylmethyl)-amine]

Same assay, conditions: read-out: calculated Kd value of the radioligand; radioligand used at a concentration equal to its Kd; species not stated

Compound	Kd
c1ccc2c(c1)CCCC2C1=NCCN1 (racemic) [[^3H]-rac-2-(1,2,3,4-tetrahydro-1-naphthyl)-2-imidazoline, reference compound]	60 nM
